In patent publication US10370387B2, “Tricyclic fused thiophene derivatives as JAK inhibitors” (Incyte Corporation, priority 2012, dated 2019) one finds JAK2/JAK1 data, which are given here for 31 compounds.

This assay relates to human JAK1. The assay can be described thus: In vitro JAK kinase assay (HTRF, phosphorylation of biotinylated peptide), JAK1. The class given is biochemical. The settings on record: ratio of JAK2 IC50 to JAK1 IC50, 1 mM ATP. As to the method: Compounds herein were tested for inhibitory activity of JAK targets according to the following in vitro assay described in Park et al., Analytical Biochemistry 1999, 269, 94-104. The catalytic domains of human JAK1 (a.a. 837-1142), JAK2 (a.a. 828-1132) and JAK3 (a.a. 781-1124) were expressed using baculovirus in insect cells and purified. The catalytic activity of JAK1, JAK2 or JAK3 was assayed by measuring the phosphorylation of a biotinylated peptide. The phosphorylated peptide was detected by homogenous time resolved fluorescence (HTRF). IC50s of compounds were measured for each kinase in the 40 μL reactions that contain the enzyme, ATP and 500 nM peptide in 50 mM Tris (pH 7.8) buffer with 100 mM NaCl, 5 mM DTT, and 0.1 mg/mL (0.01%) BSA. For the 1 mM IC50 measurements, ATP concentration in the reactions was 1 mM. Reactions were carried out at room temperature for 1 hour and then stopped with 20 μL 45 mM EDTA, 300 nM SA-APC, 6 nM Eu-Py20 in assay buffer (Perkin Elmer, Boston, Mass.). Binding to the Europium labeled antibody took place for 40 minutes and HTRF signal was measured on a PHERA star plate reader (BMG, Cary, N.C.). The Example compounds were each tested in the Example A assay (see Table 1 for data for the compounds of the examples as tested by the assay of Example A at 1 mM ATP).
(In general: In TR-FRET formats the signal depends on donor and acceptor labels being close together.)
As to `C[C@@H](O)c1nc2cnc3ccsc3c2n1[C@H]1CC[C@H](CC#N)OC1` [Example 20, ((2R,5S)-5-{2-[(1R)-1-Hydroxyethyl]-1H-imidazo[4,5-d]thieno[3,2-b]pyridin-1-yl}tetrahydro-2H-pyran-2-yl)acetonitrile], the JAK2/JAK1 is recorded as above 10.
As to `C[C@@H](O)c1nc2cnc3ccsc3c2n1[C@H]1CC[C@@H](CC#N)OC1` [Example 21, ((2S,5S)-5-{2-[(1R)-1-Hydroxyethyl]-1H-imidazo[4,5-d]thieno[3,2-b]pyridin-1-yl}tetrahydro-2H-pyran-2-yl)acetonitrile], the JAK2/JAK1 is reported as above 10.
Then `CS(=O)(=O)NCc1nc2cnc3ccsc3c2n1[C@H]1CC2CCC1C2` (stereo partly drawn) [Example 22, N-((1-((2S)-Bicyclo[2.2.1]heptan-2-yl)-1H-imidazo[4,5-d]thieno[3,2-b]pyridin-2-yl)methyl)methanesulfonamide], with above 4.
Then `C[C@@H](O)c1cc2cnc3ccsc3c2n1[C@H]1CC[C@H](CC#N)CC1` [Example 23, (trans-4-{7-[(1R)-1-Hydroxyethyl]-8H-pyrrolo[2,3-d]thieno[3,2-b]pyridin-8-yl}cyclohexyl)acetonitrile], with above 10; and `N#CC[C@H]1CC[C@H](n2/c(=N/C#N)[nH]c3cnc4ccsc4c32)CC1.O=C(O)C(F)(F)F` [Example 25, {(2E)-1-[trans-4-(Cyanomethyl)cyclohexyl]-1,3-dihydro-2H-imidazo[4,5-d]thieno[3,2-b]pyridin-2-ylidene}cyanamide trifluoroacetate], with above 6.
`N#CC[C@H]1CC[C@H](n2c(C3CC3)nc3cnc4ccsc4c32)CC1` [Example 26, [trans-4-(2-Cyclopropyl-1H-imidazo[4,5-d]thieno[3,2-b]pyridin-1-yl)cyclohexyl]acetonitrile]: the JAK2/JAK1 is above 10.
For `CC(C)c1nc2cnc3ccsc3c2n1[C@H]1CC[C@H](CC#N)CC1` [Example 27, [trans-4-(2-Isopropyl-1H-imidazo[4,5-d]thieno[3,2-b]pyridin-1-yl)cyclohexyl]acetonitrile] the value was above 10.
For `N#CC[C@H]1CC[C@H](n2c(C3CNC3)nc3cnc4ccsc4c32)CC1` [Example 28, [trans-4-(2-Azetidin-3-yl-1H-imidazo[4,5-d]thieno[3,2-b]pyridin-1-yl)cyclohexyl]acetonitrile] the value was above 7; for `CN1CC(c2nc3cnc4ccsc4c3n2[C@H]2CC[C@H](CC#N)CC2)C1` [Example 29, {trans-4-[2-(1-Methylazetidin-3-yl)-1H-imidazo[4,5-d]thieno[3,2-b]pyridin-1-yl]cyclohexyl}acetonitrile], above 9; for `CCNC(=O)C[C@H]1CC[C@H](n2c([C@@H](C)O)nc3cnc4ccsc4c32)CC1` [Example 31, N-Ethyl-2-(trans-4-{2-[(1R)-1-hydroxyethyl]-1H-imidazo[4,5-d]thieno[3,2-b]pyridin-1-yl}cyclohexyl)acetamide], above 10.
In the case of `C[C@@H](O)c1nc2cnc3ccsc3c2n1C1CCCC(CCC#N)C1` (stereo partly drawn) [Example 32, 3-(3-{2-[(1R)-1-Hydroxyethyl]-1H-imidazo[4,5-d]thieno[3,2-b]pyridin-1-yl}cyclohexyl)propanenitrile], the JAK2/JAK1 is above 10.
On to `Cc1nc2cnc3ccsc3n2c1-c1ccc(CC#N)cc1` [Example 33, [4-(7-Methylimidazo[1,2-a]thieno[3,2-e]pyrazin-8-yl)phenyl]acetonitrile], for which the JAK2/JAK1 was above 7.
`Cc1nc2cnc3ccsc3c2n1[C@H]1CC[C@H](CC#N)OC1` [Example 38, [(2R,5S)-5-(2-Methyl-1H-imidazo[4,5-d]thieno[3,2-b]pyridin-1-yl)tetrahydro-2H-pyran-2-yl]acetonitrile]: the JAK2/JAK1 was above 10.
For `CCc1nc2cnc3ccsc3c2n1[C@H]1CC[C@H](CC#N)OC1` [Example 39, [(2R,5S)-5-(2-Ethyl-1H-imidazo[4,5-d]thieno[3,2-b]pyridin-1-yl)tetrahydro-2H-pyran-2-yl]acetonitrile] the value was above 10; for `CC(C)c1nc2cnc3ccsc3c2n1[C@H]1CC[C@H](CC#N)OC1` [Example 42, [(2R,5S)-5-(2-Isopropyl-1H-imidazo[4,5-d]thieno[3,2-b]pyridin-1-yl)tetrahydro-2H-pyran-2-yl]acetonitrile], above 10; for `N#CC[C@H]1CC[C@H](n2c(C3CC3)nc3cnc4ccsc4c32)CO1` [Example 43, [(2R,5S)-5-(2-Cyclopropyl-1H-imidazo[4,5-d]thieno[3,2-b]pyridin-1-yl)tetrahydro-2H-pyran-2-yl]acetonitrile], above 10.
For `C[C@@H](O)c1nc2cnc3ccsc3c2n1[C@@H]1CC[C@@H](CC#N)OC1` [Example 44, ((2S,5R)-5-{2-[(1R)-1-Hydroxyethyl]-1H-imidazo[4,5-d]thieno[3,2-b]pyridin-1-yl}tetrahydro-2H-pyran-2-yl)acetonitrile] the value was above 10; for `C[C@H](O)c1nc2cnc3ccsc3c2n1[C@H]1CC[C@H](CC#N)OC1` [Example 45, ((2R,5S)-5-{2-[(1S)-1-Hydroxyethyl]-1H-imidazo[4,5-d]thieno[3,2-b]pyridin-1-yl}tetrahydro-2H-pyran-2-yl)acetonitrile], above 10.
For `CCc1nc2cnc3ccsc3c2n1[C@H]1CC[C@H](CC#N)CC1` [Example 47, [trans-4-(2-Ethyl-1H-imidazo[4,5-d]thieno[3,2-b]pyridin-1-yl)cyclohexyl]acetonitrile] the value was above 10.
As for `Cc1nc2cnc3ccsc3c2n1[C@H]1CC[C@H](CC#N)CC1` [Example 48, [trans-4-(2-Methyl-1H-imidazo[4,5-d]thieno[3,2-b]pyridin-1-yl)cyclohexyl]acetonitrile], the JAK2/JAK1 is recorded as above 7.
On to `C[C@@H](O)c1nc2cnc3ccsc3c2n1[C@H]1CC[C@@H](CC#N)C1.O=C(O)C(F)(F)F` [Example 49, ((1R,3S)-3-{2-[(1R)-1-Hydroxyethyl]-1H-imidazo[4,5-d]thieno[3,2-b]pyridin-1-yl}cyclopentyl)acetonitrile trifluoroacetate], for which the JAK2/JAK1 is above 10.
As for `CCOC(=O)N1CCC[C@H](n2c([C@@H](C)O)nc3cnc4ccsc4c32)C1` [Example 50, Ethyl (3S)-3-{2-[(1R)-1-hydroxyethyl]-1H-imidazo[4,5-d]thieno[3,2-b]pyridin-1-yl}piperidine-1-carboxylate], the JAK2/JAK1 is recorded as above 10.
For the compound `C[C@@H](O)c1nc2cnc3ccsc3c2n1[C@H]1CCCN(C(=O)CC#N)C1.O=C(O)C(F)(F)F` [Example 51, 3-((3S)-3-{2-[(1R)-1-Hydroxyethyl]-1H-imidazo[4,5-d]thieno[3,2-b]pyridin-1-yl}piperidin-1-yl)-3-oxopropanenitrile trifluoroacetate], the JAK2/JAK1 is given as above 10.
With `C[C@@H](O)c1nc2cnc3ccsc3c2n1[C@H]1CCCN(C(=O)CCC(F)(F)F)C1` [Example 52, (1R)-1-{1-[(3S)-1-(4,4,4-Trifluorobutanoyl)piperidin-3-yl]-1H-imidazo[4,5-d]thieno[3,2-b]pyridin-2-yl}ethanol], the JAK2/JAK1 is reported as above 10.
Then `C[C@@H](O)c1nc2cnc3ccsc3c2n1[C@H]1CCCN(C(=O)CCc2cn[nH]c2)C1` [Example 53, (1R)-1-(1-{(3S)-1-[3-(1H-Pyrazol-4-yl)propanoyl]piperidin-3-yl}-1H-imidazo[4,5-d]thieno[3,2-b]pyridin-2-yl)ethanol], with above 10; and `C[C@@H](O)c1nc2cnc3ccsc3c2n1[C@H]1CCCN(C(=O)CCc2cccnc2)C1` [Example 54, (1R)-1-{1-[(3S)-1-(3-Pyridin-3-ylpropanoyl)piperidin-3-yl]-1H-imidazo[4,5-d]thieno[3,2-b]pyridin-2-yl}ethanol], with above 10.
For `CC(CC(=O)N1CCC[C@H](n2c([C@@H](C)O)nc3cnc4ccsc4c32)C1)c1ccccc1` (stereo partly drawn) [Example 55, (1R)-1-{1-[(3S)-1-(3-Phenylbutanoyl)piperidin-3-yl]-1H-imidazo[4,5-d]thieno[3,2-b]pyridin-2-yl}ethanol] the value was above 10.
For `C[C@@H](O)c1nc2cnc3ccsc3c2n1[C@H]1CCCN(CCC#N)C1` [Example 56, 3-((3S)-3-{2-[(1R)-1-Hydroxyethyl]-1H-imidazo[4,5-d]thieno[3,2-b]pyridin-1-yl}piperidin-1-yl)propanenitrile] the value was above 10.
Turning to `C[C@@H](O)c1nc2cnc3ccsc3c2n1[C@H]1CCCN(C(=O)CCc2ccccc2)C1` [Example 57], the JAK2/JAK1 was above 10.
Then `C[C@@H](O)c1nc2cnc3ccsc3c2n1[C@H]1CCCN(C(=O)CCC#N)C1` [Example 58, 4-((3S)-3-{2-[(1R)-1-Hydroxyethyl]-1H-imidazo[4,5-d]thieno[3,2-b]pyridin-1-yl}piperidin-1-yl)-4-oxobutanenitrile], with above 10; and `C[C@@H](O)c1nc2cnc3ccsc3c2n1[C@H]1CCCN(C(=O)CCCC#N)C1` [Example 59, 5-((3S)-3-{2-[(1R)-1-Hydroxyethyl]-1H-imidazo[4,5-d]thieno[3,2-b]pyridin-1-yl}piperidin-1-yl)-5-oxopentanenitrile], with above 10.
